# Reference: patent US20200352912A1, “ANTIMICROBIAL COMPOSITIONS AND METHODS OF USING THE SAME” (The Board Of Supervisors Of Louisiana State University And …, priority 2018, published 2020)
# Entries after “also recorded” stand apart in the source; their conditions may differ.
# Assays:
# [1] = test system: HCA-7 colon cancer cells; settings: 10 μM; cited from earlier work
# [2] = test system: S. aureus NRS383; test: mouse MRSA peritonitis/sepsis model; type: in vivo, mice; settings: for survival by day 2 post-inoculation: 10 mg/kg i.p.
# Description: Mice were infected intraperitoneally with 0.2 ml of the indicated inoculum of S. aureus NRS383 in 3% hog gastric mucin/PBS. One group of mice/inoculum received either the vehicle or L-161, 982 at a dose of 10 mg/kg by i.p. injection as indicated in Materials and Methods. (A) Mortality was assessed using Kaplan Meier test (*P<0.05; **P<0.01; ***P<0.001; ns—not significant; n=15/group) compared to control groups. (B) Microbial burden in peritoneal lavage fluid and spleen was assessed between untreated (control) and treated (L-161, 982) groups 24 and 48 h post-inoculation (n=6 to 8/group). Values are plotted as the median CFU and compared using the Mann-Whitney U test (**P<0.01; ***P<0.001). Data shown are representative of three replicate experiments.
# The mouse peritonitis/intra-abdominal model was performed as previously described (8). In brief, for MRSA peritonitis, mice were injected intraperitoneally (i.p.) with 4×10^6 CFU or 5×10^6 CFU or 2×10^7 CFU of S. aureus in 0.2 ml of PBS containing 3% hog gastric mucin type III (Sigma Aldrich). Mice injected i.p. with 0.2 ml of mucin/PBS served as a negative infection control. For the intra-abdominal infection with C. albicans and S. aureus, mice were injected i.p. with 7×10^6 CFU of C. albicans and 8×10^7 CFU of S. aureus (8.7×10^7 CFU total) in 0.2 ml of PBS. After inoculation, mice were observed over 10 days for signs of morbidity (hunched posture, inactivity, lethargy, and ruffled fur) and mortality. […] In the MRSA peritonitis experiments, mice were sacrificed at 24 or 48 h post-inoculation to assess microbial burden. Peritoneal cavities were lavaged by injection of 2 ml of sterile PBS followed by gentle massaging of the peritoneal cavity. Peritoneal lavage fluid then was removed using a pipette inserted into a small incision in the abdominal cavity. Spleens were removed, weighed, and mechanically homogenized prior to CFU analysis. Microbial burdens in the peritoneal lavage fluid and spleen were enumerated as described above.
# Each inhibitor was prepared fresh as a concentrated stock (20-25 mg/ml) in DMSO and diluted to a working concentration of […] in sterile PBS (final DMSO concentration, 2.3%). A sham treatment containing only 2.3% DMSO in PBS was also prepared. For the MRSA peritonitis study, the EP4 receptor antagonist was administered 2 h after S. aureus inoculation and once daily thereafter until day 4 post inoculation. For the IAI co-infection study, COX inhibitor or vehicle control was administered 4 h prior to and 4 and 8 h after inoculation with C. albicans and S. aureus while the EP receptor antagonists were administered daily starting 1 day prior to and 5 days after infection. All other procedures were performed as described above. Control groups received the vehicle at the same dose interval.
# L-161, 982 protects against mono- and poly-microbial infections with MRSA. We next evaluated the efficacy of L-161, 982 in vivo using an established mouse peritonitis/sepsis model of infection. Mice were inoculated with three varying lethal inocula of S. aureus and treated with L-161, 982 (10 mg/kg) intraperitoneally (i.p.) 2 h post-inoculation and once daily afterwards through day 4. Control group received the vehicle at the same dose interval.
# [3] = test system: S. aureus strain NRS383; test: effect of exogenous thymidine on antibacterial activity; type: cell-based, Staphylococcus aureus; settings: 50 μg/ml, 200 μg/ml thymidine
# Description: S. aureus strain NRS383 was grown in cation-adjusted Mueller-Hinton II broth alone (control), with 50 μg/ml of L-161, 982 or with 40 μg/ml of SXT (positive control)±200 μg/ml of thymidine. Cultures were incubated at 37° C. non-shaking and aliquots were removed at various time points and cultured for growth (CFU). Results are expressed as % of control at each time point. Mean values from two independent experiments are shown.
# Effect of exogenous thymidine on antibacterial activity of L-161, 982. S. aureus was cultured to mid-log phase in cation-adjusted Mueller-Hinton II broth with shaking at 37° C. Cultures were further diluted to yield a final concentration of 5×10^5 cells/ml. and treated with drugs alone or in combination with 200 μg/ml of thymidine (Sigma). Drugs were L-161, 982 (50 μg/ml) or 40 μg/ml of trimethoprim-sulfamethoxazole (SXT) at a ratio of 1:19 (2 μg/ml of trimethoprim and 38 μg/ml of sulfamethoxazole; Sigma) as a positive control. Cultures were incubated at 37° C. without shaking and aliquots were removed at t(0), 2, 4, 6, and 24 hours. CFUs were enumerated by plating various dilutions on TSA plates and incubating at 37° C. for 24 hours. Results were normalized to negative control cultures containing no drug at each time point.
# [4] = administration of L-161,982 alone to control animals; type: in vivo, mice
# Source text: Furthermore, L-161, 982 protected mice against the synergistic lethality induced by co-infection with C. albicans and S. aureus. […] The goal of these studies was to further investigate the antimicrobial mechanism of action (MOA) of L-161, 982, testing mechanisms associated with major classes of antimicrobials.
# [5] = test system: S. aureus NRS383; test: growth inhibition kinetics; type: cell-based, Staphylococcus aureus
# Description: Growth of S. aureus NRS383 was monitored for up to 24 h in medium alone or supplemented with DMSO or 50 μg/ml L-161, 982. After 6 h of coincubation, fresh L-161, 982 was added to growth medium (*). Data shown are representative of three independent experiments.
# We next investigated the kinetics of growth inhibition kinetics by L-161, 982 against S. aureus and drug stability. The minimum inhibitory concentration (MIC) of L-161, 982 against planktonic S. aureus was 50 μg/ml while the […] was 100 μg/ml. […] To address whether the loss of inhibition was due to drug degradation over time (half-life), or to adaptation of S. aureus cells to L-161, 982, fresh L-161, 982 (50 μg/ml) was added during the co-incubation.
structure (smiles),measurement,setting,value
"CCCCc1nn(-c2ccccc2C(F)(F)F)c(=O)n1Cc1ccc(-c2ccccc2S(=O)(=O)NC(=O)c2sccc2C)cc1 [L-161, 982, N-[[4′-[[3-Butyl-1,5-dihydro-5-oxo-1-[2-(trifluoromethyl)phenyl]-4H-1,2,4-triazol-4-yl]methyl][1,1′-biphenyl]-2-yl]sulfonyl]-3-methyl-2-thiophenecarboxamide]",effect on PGE2-induced cell proliferation,[1],blocks PGE2-induced cell proliferation
same,reduction of S. aureus in peritoneal cavity and spleen,"[2]; 24 h post inoculation, vs untreated",3 logs
same,additional reduction of S. aureus in peritoneal cavity and spleen,"[2]; 48 h post infection, after a second dose",3 log
same,mortality by day 2 at high inoculum,[2]; inoculum 2×10^7 CFU,could not be reversed
same,survival by day 2 post-inoculation,"[2]; inoculum 4×10^6 CFU, control 40",85%
same,survival by day 2 post-inoculation,"[2]; inoculum 5×10^6 CFU, control 25",55%
same,survival through day 10,"[2]; intermediate and lowest inocula, continued dosing, control 20% survival",sustained survival
same,survival rate raised by,"[2]; one treatment, depending on infectious dose",at least 50%
same,effect of exogenous thymidine on growth inhibition,[3],did not reverse; also recorded: no effect
same,morbidity or mortality in control animals,[4],no morbidity or mortality
same,overt signs of toxicity,[4],did not cause any overt signs of toxicity
same,"inhibition when fresh L-161, 982 is added during co-incubation","[5]; 50 μg/ml, fresh 50 μg/ml after 6 h",maintained inhibition over a 24 h period
same,duration of inhibitory effect on S. aureus,[5]; at the MIC of 50 μg/ml,≤ 8 h
